Assay results: patent US10021881B2, “Vaporized administration of pesticides” (priority 2016, dated 2018)

Assay: Thermo Gravity Analysis (TGA) degradation temperature
Assay type: physicochemical
Conditions: for temperature at which degradation began (TGA): ramp 10° C. per minute to 300° C.
Description: This example relates to experiments performed to determine the degradation temperatures of pyrimethanil technical compounds and fungicide samples. In the present example, pyrimethanil compounds from China (compound 1) and Europe (compound 2) were analyzed by Thermo Gravity Analysis (TGA). The pyrimethanil samples were run in both air and nitrogen atmospheres on the Q5000 TGA instrument (TA Instruments) equipped in open platinum pans, and using standard TGA test methods as follows: select gas 1 and 2, data storage on, ramp at 10° C. per minute to 300° C., data storage off, and end method. An isothermal method was also performed according to standard methods.

Cc1cc(C)nc(Nc2ccccc2)n1 [compound 1]
temperature at which degradation began (TGA) (in air): about 120.3 °C | temperature at which degradation was complete (TGA) (in both air and nitrogen): about 200 °C | temperature at which degradation began (TGA) (in nitrogen): about 120.6 °C
